*1 amine or outer side, *2 acyl side, *3 side chain or, on linkers, in order; H or OH if unused. Where a SMILES comes first, the peptide text is derived from it. [ ]: non-standard residue; d: D form. X2 = N=C(N)NCCC[C@@H](C(=O)[*:2])N(c1ccc([N+](=O)[O-])c2nonc12)[*:1]; Nlys = NCCCCNCC(=O)O
What was measured:
HEK293T cells = assay: Fluorescence microscopy of cell penetration of NBD-labeled activators; format: cell-based, human; conditions: 10 μM, 3 h
Experimental: In order to verify the permeability of the constructs across cell membranes, we synthesized their analogues with an NBD fluorophore attached at the N-terminus. The excitation wavelength for this fluorophore is 467 nm, and the emission wavelength is 539 nm.
HEK293T cells were incubated in DMEM supplemented with 10% FBS and penicillin/streptomycin (100 units/mL/100 μg/mL), at 37 °C with 5% CO2. Cells were seeded on 24-well plates at a density of 3 × 10^4 cells per well and incubated in 0.5 mL of the complete medium for 48 h. Then, the fresh medium containing the modulators labeled with NBD fluorophore was added to each well at a concentration of 10 μM. Half an hour before the end of the incubation, 20 μL of Hoechst 33342 dye was added to each well, and then the plate was placed back in the incubator. After the 3 h incubation, cells were washed thoroughly with PBS, and a phenol red-free culture medium (FluoroBriteTM DMEM, Gibco/Thermo Fisher Scientific, Waltham, MA, USA) was added. Subsequently, the cells were examined using a Zeiss AXIO Observer D1 microscope (Carl Zeiss AG, Oberkochen, Germany) using an Alexa Fluor 488 filter.

human 20S proteasome = system: T1, human 20S proteasome; assay: h20S proteasome activity probed with FRET-type Dabcyl-EDANS substrate; format: biochemical
T1 construct: human proteasome isolated from erythrocytes; from tissue; host or cells: human erythrocytes
Text: To assess the influence of substitutions increasing proteolytic stability on the modulators’ capacity to stimulate chymotrypsin-like, trypsin-like, and caspase-like activity of h20S, we used classic fluorogenic substrates: Suc-LLVY-AMC, Boc-LRR-AMC, and Z-LLE-AMC, respectively. To confirm the observed stimulating capacity, we also conducted assays using a FRET-type reporter peptide with a sequence consisting of 11 residues (Lys(Dabcyl)-[…]EDANS)-Gly).[27] As we checked, the activated 20S hydrolyzed this substrate after more than one residue (Lys, Gly, and Glu), which makes it a probe better reflecting the concerted action of the proteasome’s three peptidases. […] The discrepancy in the level of activation was mainly due to the greater sensitivity of the FRET substrate, as it is not digested, unlike the AMC-based probes, by the latent proteasome, which results in greater differences in fluorescence relative to the controls. […] The ability to affect individual peptidases of the proteasome in different ways is most likely related to the allosteric mechanism of action of the modulators. Binding at a site distant from the catalytic compartment may result in greater diversity in the pathways by which the signal reaches active sites and differential effects of that signal on each peptidase.
(§1) The effect of all synthesized peptidomimetics on the catalytic activity of the proteasome was tested using a human proteasome isolated from erythrocytes. Suc-LLVY-AMC, Boc-LRR-AMC, and Z-LLE-AMC fluorogenic substrates (Bachem, Bubendorf, Switzerland) were used for assessment of the chymotrypsin-, trypsin-, and caspase-like activities, respectively. A homemade FRET-type substrate Dabcyl-EDANS (Lys(Dabcyl)-[…]EDANS)-Gly)[26] was used as an additional probe. Stock solutions of the substrates and tested peptidomimetics were prepared in dimethyl sulfoxide (DMSO), ensuring that the final concentration of DMSO in all samples remained consistent at 2%. The small fluorogenic substrates were used at a final concentration of 100 μM, while Dabcyl-EDANS was prepared at a final concentration of 15 μM. Modulators were tested in concentrations ranging from 1.0 to 50 μM, with compounds containing TAT or 6R sequences tested at lower concentrations ranging from 0.5 to 10 μM. Activity tests were conducted in 96-well plates using 50 mM Tris/HCl, pH 8.0, as an assay buffer. The final concentration of h20S proteasome was adjusted to 0.002 mg/mL (2.8 nM). The fluorescence of released aminomethylcoumarin (AMC) was monitored at 460 nm (λex was 380 nm), while the hydrolysis of Dabcyl-EDANS was detected by measuring emission at 493 nm (λex was set at 335 nm). Fluorescence measurements were taken continuously every 2 min over a 60 min period at 37 °C using a Tecan Infinite M200Pro spectrofluorometer (Tecan Trading AG, Männedorf, Switzerland). All activity assays were performed in at least three independent replicates. The relative activity was calculated in relation to the catalytic activity of the vehicle (DMSO)-treated latent proteasome, which was regarded as 100%. Statistical analysis was performed using the one-way ANOVA followed by Tukey’s post-hoc test. P-value <0.05 was considered statistically significant.

[1] = system: T2, human 20S proteasome, ChT-L peptidase; assay: Chymotrypsin-like (ChT-L) activity of h20S probed with Suc-LLVY-AMC; format: biochemical; conditions: 100 μM Suc-LLVY-AMC; level reached vs latent proteasome
T2 construct: human proteasome isolated from erythrocytes; from tissue; host or cells: human erythrocytes
Experimental: To assess the influence of substitutions increasing proteolytic stability on the modulators’ capacity to stimulate chymotrypsin-like, trypsin-like, and caspase-like activity of h20S, we used classic fluorogenic substrates: Suc-LLVY-AMC, Boc-LRR-AMC, and Z-LLE-AMC, respectively.
as §1, with “Modulators were tested in concentrations ranging from 1.0 to 50 μM, with compounds containing TAT or 6R sequences tested at lower concentrations ranging from 0.5 to 10 μM.” left out

[2] = PAMPA, blood–brain barrier mimic; format: in vitro ADME; conditions: 500 μM, 37 °C, 22 h
Text: In neurodegenerative diseases, proteins prone to aggregation accumulate in the neuronal cells. Therefore, a necessary feature of potential drugs is not only permeability across the cell membrane but also the ability to cross the blood-brain barrier (BBB). To preliminarily investigate this feature, we performed parallel artificial membrane permeation assays (PAMPA) including as positive controls propranolol and Tat47-57, known for their ability to penetrate the blood-brain barrier. Dopamine hydrobromide was included as a negative control. For comparison, we also tested compound 1a, which is devoid of a CPP sequence. […] The PAMPA was performed as previously described.[21] Briefly, a 2% solution of porcine brain lipid membrane (PBL; Avanti Polar Lipids Inc., Alabaster, AL, USA) in anhydrous dodecane was used as a mimic of the blood-brain barrier. Propranolol hydrochloride (Merck, Darmstadt, Germany) and Tat47-57 (synthesized in-house) served as positive controls, while dopamine hydrobromide (Merck, Darmstadt, Germany) was used as a negative control. Stock solutions of the tested compounds and controls were prepared at a concentration of 10 mM in deionized water and then diluted to 500 μM using 0.1 M PBS containing 5% DMSO. The donor-acceptor plate assembly was incubated at 37 °C while being shaken at 250 rpm for 22 h. Absorbance at 290 nm was measured for propranolol using an Infinite […] plate reader (Infinite […] plate reader, Tecan). For the other samples, fluorescence measurements were performed after the compounds were reacted with 0.02% fluorescamine. The rate of passive diffusion was calculated as the linear velocity of permeation (Pe). The data represent an average of three independent biological replicates.

SMILES: C[C@@H](O)[C@H](NC(=O)[C@H](Cc1ccccc1)NC(=O)[C@H](Cc1ccc(O)cc1)NC(=O)CN(CCCCN)C(=O)[C@H](CCCNC(=N)N)NC(=O)[C@H](CCCNC(=N)N)NC(=O)[C@H](CCCNC(=N)N)NC(=O)[C@H](CCC(N)=O)NC(=O)[C@H](CCCNC(=N)N)NC(=O)[C@H](CCCNC(=N)N)NC(=O)[C@H](CCCCN)NC(=O)[C@H](CCCCN)NC(=O)[C@H](CCCNC(=N)N)Nc1ccc([N+](=O)[O-])c2nonc12)C(=O)NCC(=O)N[C@@H](CO)C(=O)N[C@@H](CCCCN)C(=O)N[C@@H](CC(=O)O)C(=O)N[C@@H](Cc1c[nH]c2ccccc12)C(=O)N[C@@H](CCCNC(=N)N)C(=O)N[C@@H](CO)C(=O)N[C@@H](Cc1ccc(O)cc1)C(=O)N[C@@H](Cc1ccc(O)cc1)C(=O)N[C@@H](CO)C(=O)O [1f_NBD] (H-[X2]KKRRQRRR[Nlys]YFTGSKDWRSYYS-OH; C-terminus assumed)
- penetration into cells, NBD fluorescence (HEK293T cells): fluorescence from the attached NBD tag is visible inside HEK293T cells

SMILES: C[C@@H](O)[C@H](NC(=O)[C@H](Cc1ccccc1)NC(=O)[C@H](Cc1ccc(O)cc1)NC(=O)CN(CCCCN)C(=O)[C@H](CCCNC(=N)N)NC(=O)[C@H](CCCNC(=N)N)NC(=O)[C@H](CCCNC(=N)N)NC(=O)[C@H](CCCNC(=N)N)NC(=O)[C@H](CCCNC(=N)N)NC(=O)[C@H](CCCNC(=N)N)Nc1ccc([N+](=O)[O-])c2nonc12)C(=O)NCC(=O)N[C@@H](CO)C(=O)N[C@@H](CCCCN)C(=O)N[C@@H](CC(=O)O)C(=O)N[C@@H](Cc1c[nH]c2ccccc12)C(=O)N[C@@H](CCCNC(=N)N)C(=O)N[C@@H](CO)C(=O)N[C@@H](Cc1ccc(O)cc1)C(=O)N[C@@H](Cc1ccc(O)cc1)C(=O)N[C@@H](CO)C(=O)O [1g_NBD] (H-[X2]RRRRR[Nlys]YFTGSKDWRSYYS-OH; C-terminus assumed)
- penetration into cells, NBD fluorescence (HEK293T cells): fluorescence from the attached NBD tag is visible inside HEK293T cells

SMILES: C[C@@H](O)[C@H](NC(=O)[C@H](Cc1ccccc1)NC(=O)[C@H](Cc1ccc(O)cc1)NC(=O)CNCCCCN)C(=O)NCC(=O)N[C@@H](CO)C(=O)N[C@@H](CCCCN)C(=O)N[C@@H](CC(=O)O)C(=O)N[C@@H](Cc1c[nH]c2ccccc12)C(=O)N[C@@H](CCCNC(=N)N)C(=O)N[C@@H](CO)C(=O)N[C@@H](Cc1ccc(O)cc1)C(=O)N[C@@H](Cc1ccc(O)cc1)C(=O)N[C@@H](CO)C(=O)O [compound 1a] (H-[Nlys]YFTGSKDWRSYYS-OH)
- h20S stimulating capacity, Dabcyl-EDANS (human 20S proteasome; 15 μM Dabcyl-EDANS, 1.0-50 μM modulator): did not lose their ability to effectively stimulate h20S
- stimulation of h20S activity, Dabcyl-EDANS probe (human 20S proteasome; 15 μM Dabcyl-EDANS, level reached vs latent proteasome): 12 fold
- h20S stimulating potency, Dabcyl-EDANS (human 20S proteasome; at the lowest concentrations): even more potent than 1
- stimulation of h20S activity, Suc-LLVY-AMC probe [1]: 8 fold
- permeability across artificial BBB membrane, PAMPA [2]: at the level of a negative control
